# According to patent US3981865A, “Bis-type penicillins and process for producing the same” (Toyama Chemical Co., Ltd., priority 1974, dated 1976):
# Key:
# Proteus vulgaris 3027 = assay: MIC by plate method, standard strains; type: cell-based; conditions: Heart infusion agar pH 7.4, inoculum 10^4 cells per plate (10^6 cells/ml.), unit assumed
# Description: (§1) The minimum inhibitory concentration (MIC) was determined by the plate method disclosed in "Chemotherapy" (Japan), Vol. 16, (1968), pages 98 - 99. The culture medium used was a Heart infusion agar (pH 7.4). The number of the cells per plate used in the inoculum was 10^4 (10^6 cells/ml.).
# [1] = tested on: Pseudomonas aeruginosa I.F.O.; assay: MIC by plate method, standard strains; type: cell-based; conditions: Heart infusion agar pH 7.4, inoculum 10^4 cells per plate (10^6 cells/ml.), unit assumed
# Description: as §1
# Klebsiella pneumoniae = assay: MIC by plate method, standard strains; type: cell-based; conditions: Heart infusion agar pH 7.4, inoculum 10^4 cells per plate (10^6 cells/ml.), unit assumed
# Description: as §1
# Escherchia coli NIHJ = assay: MIC by plate method, standard strains; type: cell-based; conditions: Heart infusion agar pH 7.4, inoculum 10^4 cells per plate (10^6 cells/ml.), unit assumed
# Description: as §1
# [2] = tested on: Staphylococcus aureus 209P; assay: MIC by plate method, standard strains; type: cell-based; conditions: Heart infusion agar pH 7.4, inoculum 10^4 cells per plate (10^6 cells/ml.), unit assumed
# Description: as §1
# [3] = tested on: β-lactamase from Pseudomonas aeruginosa GN 238; assay: Resistant activity against β-lactamase, iodometric assay; type: biochemical; conditions: β-lactamase hydrolysis, relative to Potassium Penicillin G = 100
# Description: (§2) 3. Resistant activity against β-lactamase, Pseudomonas aeruginosa GN 238 and Escherchia coli 33:
# (§3) The resistant activity of each compound against β-lactamase was measured in the manner described below.
# (§4) β-Lactamase was prepared from Pseudomonas aeruginosa GN 238 and Escherchia coli 33. This microorganism was cultured in 100 ml. of a medium containing 2 g. of yeast extract, 10 g. of polypeptone, 2 g. of glucose, 7 g. of disodium hydrogen phosphate, 2 g. of potassium dihydrogen phosphate, 1.2 g. of ammonium sulfate and 0.4 g. of magnesium sulfate, per liter, in a 500-ml. Erlenmeyer flask for 6 hrs. at 37°C with shaking. The resulting cells were collected by centrifugation (5,000 r.p.m. × 10 min.), washed three times with 0.1 M phosphate buffer (pH 7.0). Subsequently, the cells were subjected to sonication (20 KHz, 20 min.) and then centrifuged at 15,000 r.p.m. for 60 min. By using the supernatant of enzyme fluid, the resistance of each compound against β-lactamase was determined by the iodometric assay method. Each numeral shown in Table 3 is a relative activity value calculated by assuming as 100 the activity of the control Potassium Penicillin G.
# [4] = tested on: β-lactamase from Escherchia coli 33; assay: as above; type: biochemical; conditions: β-lactamase hydrolysis, relative to Potassium Penicillin G = 100
# Description: as §2, §3, §4
# [5] = tested on: Pseudomonas aeruginosa clinical isolates; assay: MIC by plate method, clinical isolates of bacteria; type: cell-based; conditions: for MIC Pseudomonas aeruginosa GN 82: clinical isolate GN 82, Heart infusion agar pH 7.4, unit assumed; for MIC Pseudomonas aeruginosa GN 163: clinical isolate GN 163, Heart infusion agar pH 7.4, unit assumed; for MIC Pseudomonas aeruginosa GN 221: clinical isolate GN 221, Heart infusion agar pH 7.4, unit assumed; for MIC Pseudomonas aeruginosa GN 264: clinical isolate GN 264, Heart infusion agar pH 7.4, unit assumed; for MIC Pseudomonas aeruginosa GN 376: clinical isolate GN 376, Heart infusion agar pH 7.4, unit assumed; for MIC Pseudomonas aeruginosa GN 383: clinical isolate GN 383, Heart infusion agar pH 7.4, unit assumed; for MIC Pseudomonas aeruginosa GN 1035: clinical isolate GN 1035, Heart infusion agar pH 7.4, unit assumed; for MIC Pseudomonas aeruginosa GN 1091: clinical isolate GN 1091, Heart infusion agar pH 7.4, unit assumed; for MIC Pseudomonas aeruginosa GN 2565: clinical isolate GN 2565, Heart infusion agar pH 7.4, unit assumed; for MIC Pseudomonas aeruginosa GN 2987: clinical isolate GN 2987, Heart infusion agar pH 7.4, unit assumed; for MIC Pseudomonas aeruginosa S-2: clinical isolate S-2, Heart infusion agar pH 7.4, unit assumed; for MIC Pseudomonas aeruginosa S-3: clinical isolate S-3, Heart infusion agar pH 7.4, unit assumed; for MIC Pseudomonas aeruginosa S-4: clinical isolate S-4, Heart infusion agar pH 7.4, unit assumed
# Description: as §1
# MIC was determined in the same manner as in the preceding paragraph (1).
# [6] = Acute toxicity LD50 i.v. in mouse; conditions: in vivo, iv; i.v. in mouse having a weight of 19 ± 1 g.
# Text: The present penicillins have generally low toxicity.
smiles,measurement,setting,value
CC1(C)S[C@@H]2[C@H](NC(=O)[C@H](NC(=O)NC(=O)c3ccc(C(=O)NC(=O)N[C@@H](C(=O)N[C@@H]4C(=O)N5[C@@H]4SC(C)(C)[C@@H]5C(=O)O)c4ccccc4)cc3)c3ccccc3)C(=O)N2[C@H]1C(=O)O [Compound No. 1],MIC Proteus vulgaris 3027,Proteus vulgaris 3027,25 µg/mL
same,MIC Pseudomonas aeruginosa I.F.O.,[1],12.5 µg/mL
same,MIC Klebsiella pneumoniae,Klebsiella pneumoniae,25 µg/mL
same,MIC Escherchia coli NIHJ,Escherchia coli NIHJ,3.13 µg/mL
same,MIC Staphylococcus aureus 209P,[2],< 1.57 µg/mL
same,Relative activity (%) Pseudomonas aeruginosa GN238,[3],18%
same,Relative activity (%) Escherchia coli 33,[4],12%
"CC1(C)S[C@@H]2[C@H](NC(=O)[C@H](NC(=O)NC(=O)CCC(=O)NC(=O)N[C@@H](C(=O)N[C@@H]3C(=O)N4[C@@H]3SC(C)(C)[C@@H]4C(=O)O)c3ccccc3)c3ccccc3)C(=O)N2[C@H]1C(=O)O [Compound No. 3, N,N'-succinyl-bis[6-(D(-)-α-ureidophenylacetamido)penicillanic acid]]",MIC Proteus vulgaris 3027,Proteus vulgaris 3027,12.5 µg/mL
same,MIC Pseudomonas aeruginosa I.F.O.,[1],25 µg/mL
same,MIC Klebsiella pneumoniae,Klebsiella pneumoniae,100 µg/mL
same,MIC Escherchia coli NIHJ,Escherchia coli NIHJ,12.5 µg/mL
same,MIC Staphylococcus aureus 209P,[2],< 1.57 µg/mL
same,MIC Pseudomonas aeruginosa GN 82,[5],12.5 µg/mL
same,MIC Pseudomonas aeruginosa GN 163,[5],25 µg/mL
same,MIC Pseudomonas aeruginosa GN 221,[5],25 µg/mL
same,MIC Pseudomonas aeruginosa GN 264,[5],50 µg/mL
same,MIC Pseudomonas aeruginosa GN 376,[5],25 µg/mL
same,MIC Pseudomonas aeruginosa GN 383,[5],50 µg/mL
same,MIC Pseudomonas aeruginosa GN 1035,[5],50 µg/mL
same,MIC Pseudomonas aeruginosa GN 1091,[5],25 µg/mL
same,MIC Pseudomonas aeruginosa GN 2565,[5],25 µg/mL
same,MIC Pseudomonas aeruginosa GN 2987,[5],25 µg/mL
same,MIC Pseudomonas aeruginosa S-2,[5],25 µg/mL
same,MIC Pseudomonas aeruginosa S-3,[5],25 µg/mL
same,MIC Pseudomonas aeruginosa S-4,[5],25 µg/mL
same,LD50,[6],> 3000 mg/kg
same,Relative activity (%) Pseudomonas aeruginosa GN238,[3],5%
same,Relative activity (%) Escherchia coli 33,[4],3%
"CC1(C)S[C@@H]2[C@H](NC(=O)[C@H](NC(=O)NC(=O)CCCCCCCCC(=O)NC(=O)N[C@@H](C(=O)N[C@@H]3C(=O)N4[C@@H]3SC(C)(C)[C@@H]4C(=O)O)c3ccccc3)c3ccccc3)C(=O)N2[C@H]1C(=O)O [Compound No. 4, N,N'-sebacoyl-bis[6-(D(-)-α-ureidophenylacetamido)penicillanic acid]]",MIC Proteus vulgaris 3027,Proteus vulgaris 3027,25 µg/mL
same,MIC Pseudomonas aeruginosa I.F.O.,[1],50 µg/mL
same,MIC Klebsiella pneumoniae,Klebsiella pneumoniae,25 µg/mL
same,MIC Escherchia coli NIHJ,Escherchia coli NIHJ,3.13 µg/mL
same,MIC Staphylococcus aureus 209P,[2],< 1.57 µg/mL
same,Relative activity (%) Pseudomonas aeruginosa GN238,[3],12%
same,Relative activity (%) Escherchia coli 33,[4],8%
"CC1(C)S[C@@H]2[C@H](NC(=O)[C@H](NC(=O)NC(=O)CCCCCCCCCCCC(=O)NC(=O)N[C@@H](C(=O)N[C@@H]3C(=O)N4[C@@H]3SC(C)(C)[C@@H]4C(=O)O)c3ccccc3)c3ccccc3)C(=O)N2[C@H]1C(=O)O [Compound No. 6, N,n'-tridecanedioyl-bis[6-(D(-)-α-ureidophenylacetamido)penicillanic acid]]",MIC Proteus vulgaris 3027,Proteus vulgaris 3027,25 µg/mL
same,MIC Pseudomonas aeruginosa I.F.O.,[1],25 µg/mL
same,MIC Klebsiella pneumoniae,Klebsiella pneumoniae,12.5 µg/mL
same,MIC Escherchia coli NIHJ,Escherchia coli NIHJ,3.13 µg/mL
same,MIC Staphylococcus aureus 209P,[2],< 1.57 µg/mL
same,Relative activity (%) Pseudomonas aeruginosa GN238,[3],< 1%
same,Relative activity (%) Escherchia coli 33,[4],< 1%
"CC1(C)S[C@@H]2[C@H](NC(=O)Cc3ccccc3)C(=O)N2[C@H]1C(=O)O [Potassium Penicillin G, reference compound]",Relative activity (%) Pseudomonas aeruginosa GN238,[3],100%
same,Relative activity (%) Escherchia coli 33,[4],100%
"CC1(C)S[C@@H]2[C@H](NC(=O)[C@H](N)c3ccccc3)C(=O)N2[C@H]1C(=O)O [Sodium Ampicillin, reference compound]",MIC Proteus vulgaris 3027,Proteus vulgaris 3027,> 200 µg/mL
same,MIC Pseudomonas aeruginosa I.F.O.,[1],> 200 µg/mL
same,MIC Klebsiella pneumoniae,Klebsiella pneumoniae,50 µg/mL
same,MIC Escherchia coli NIHJ,Escherchia coli NIHJ,< 1.57 µg/mL
same,MIC Staphylococcus aureus 209P,[2],< 1.57 µg/mL
same,MIC Pseudomonas aeruginosa GN 82,[5],> 200 µg/mL
same,MIC Pseudomonas aeruginosa GN 163,[5],> 200 µg/mL
same,MIC Pseudomonas aeruginosa GN 221,[5],> 200 µg/mL
same,MIC Pseudomonas aeruginosa GN 264,[5],> 200 µg/mL
same,MIC Pseudomonas aeruginosa GN 376,[5],> 200 µg/mL
same,MIC Pseudomonas aeruginosa GN 383,[5],> 200 µg/mL
same,MIC Pseudomonas aeruginosa GN 1035,[5],> 200 µg/mL
same,MIC Pseudomonas aeruginosa GN 1091,[5],> 200 µg/mL
same,MIC Pseudomonas aeruginosa GN 2565,[5],> 200 µg/mL
same,MIC Pseudomonas aeruginosa GN 2987,[5],> 200 µg/mL
same,MIC Pseudomonas aeruginosa S-2,[5],> 200 µg/mL
same,MIC Pseudomonas aeruginosa S-3,[5],> 200 µg/mL
same,MIC Pseudomonas aeruginosa S-4,[5],> 200 µg/mL
CC1(C)S[C@@H]2[C@H](NC(=O)[C@H](NC(=O)NC(=O)c3ccc4cc(C(=O)NC(=O)N[C@@H](C(=O)N[C@@H]5C(=O)N6[C@@H]5SC(C)(C)[C@@H]6C(=O)O)c5ccccc5)ccc4c3)c3ccccc3)C(=O)N2[C@H]1C(=O)O [compound 2],MIC Proteus vulgaris 3027,Proteus vulgaris 3027,3.15 µg/mL
same,MIC Pseudomonas aeruginosa I.F.O.,[1],25 µg/mL
same,MIC Klebsiella pneumoniae,Klebsiella pneumoniae,3.13 µg/mL
same,MIC Escherchia coli NIHJ,Escherchia coli NIHJ,< 1.57 µg/mL
same,MIC Staphylococcus aureus 209P,[2],< 1.57 µg/mL
"CC1(C)S[C@@H]2[C@H](NC(=O)[C@H](NC(=O)NC(=O)CCCCCCCCCCC(=O)NC(=O)N[C@@H](C(=O)N[C@@H]3C(=O)N4[C@@H]3SC(C)(C)[C@@H]4C(=O)O)c3ccccc3)c3ccccc3)C(=O)N2[C@H]1C(=O)O [compound 5, N,n'-dodecanedioyl-bis[6-(D(-)-α-ureidophenylacetamido)penicillanic acid]]",MIC Proteus vulgaris 3027,Proteus vulgaris 3027,100 µg/mL
same,MIC Pseudomonas aeruginosa I.F.O.,[1],50 µg/mL
same,MIC Klebsiella pneumoniae,Klebsiella pneumoniae,12.5 µg/mL
same,MIC Escherchia coli NIHJ,Escherchia coli NIHJ,3.13 µg/mL
same,MIC Staphylococcus aureus 209P,[2],< 1.57 µg/mL
CC1(C)S[C@@H]2[C@H](NC(=O)[C@H](NC(=O)NC(=O)COc3ccc(OCC(=O)NC(=O)N[C@@H](C(=O)N[C@@H]4C(=O)N5[C@@H]4SC(C)(C)[C@@H]5C(=O)O)c4ccccc4)cc3)c3ccccc3)C(=O)N2[C@H]1C(=O)O [compound 7],MIC Proteus vulgaris 3027,Proteus vulgaris 3027,12.5 µg/mL
same,MIC Pseudomonas aeruginosa I.F.O.,[1],25 µg/mL
same,MIC Klebsiella pneumoniae,Klebsiella pneumoniae,25 µg/mL
same,MIC Escherchia coli NIHJ,Escherchia coli NIHJ,6.25 µg/mL
same,MIC Staphylococcus aureus 209P,[2],< 1.57 µg/mL
CC1(C)S[C@@H]2[C@H](NC(=O)[C@H](NC(=O)NC(=O)c3ccc(CCc4ccc(C(=O)NC(=O)N[C@@H](C(=O)N[C@@H]5C(=O)N6[C@@H]5SC(C)(C)[C@@H]6C(=O)O)c5ccccc5)cc4)cc3)c3ccccc3)C(=O)N2[C@H]1C(=O)O [compound 8],MIC Proteus vulgaris 3027,Proteus vulgaris 3027,6.25 µg/mL
same,MIC Pseudomonas aeruginosa I.F.O.,[1],50 µg/mL
same,MIC Klebsiella pneumoniae,Klebsiella pneumoniae,6.25 µg/mL
same,MIC Escherchia coli NIHJ,Escherchia coli NIHJ,< 1.57 µg/mL
same,MIC Staphylococcus aureus 209P,[2],< 1.57 µg/mL
CC1(C)S[C@@H]2[C@H](NC(=O)[C@H](NC(=O)NC(=O)c3ccc(C(=O)c4ccc(C(=O)NC(=O)N[C@@H](C(=O)N[C@@H]5C(=O)N6[C@@H]5SC(C)(C)[C@@H]6C(=O)O)c5ccccc5)cc4)cc3)c3ccccc3)C(=O)N2[C@H]1C(=O)O [compound 9],MIC Proteus vulgaris 3027,Proteus vulgaris 3027,12.5 µg/mL
same,MIC Pseudomonas aeruginosa I.F.O.,[1],25 µg/mL
same,MIC Klebsiella pneumoniae,Klebsiella pneumoniae,12.5 µg/mL
same,MIC Escherchia coli NIHJ,Escherchia coli NIHJ,3.13 µg/mL
same,MIC Staphylococcus aureus 209P,[2],< 1.57 µg/mL
